Patent publication US8242118B2, “Arylsulfonamide derivatives for use as CCR3 antagonists in the treatment of inflammatory and immunological disorders” (Axikin Pharmaceuticals Inc., priority 2001, dated 2012)
Where a name gives a salt, the structure may show the parent alone.

Target: T1, Human CCR3 (Homo sapiens, UniProt P51677)
T1 construct: The cloned CCR3 cDNA was constructed with pcDNA3 vector and transfected into a IC562 cell line; expressed in transfected cells
T1 sequence (P51677 1-355): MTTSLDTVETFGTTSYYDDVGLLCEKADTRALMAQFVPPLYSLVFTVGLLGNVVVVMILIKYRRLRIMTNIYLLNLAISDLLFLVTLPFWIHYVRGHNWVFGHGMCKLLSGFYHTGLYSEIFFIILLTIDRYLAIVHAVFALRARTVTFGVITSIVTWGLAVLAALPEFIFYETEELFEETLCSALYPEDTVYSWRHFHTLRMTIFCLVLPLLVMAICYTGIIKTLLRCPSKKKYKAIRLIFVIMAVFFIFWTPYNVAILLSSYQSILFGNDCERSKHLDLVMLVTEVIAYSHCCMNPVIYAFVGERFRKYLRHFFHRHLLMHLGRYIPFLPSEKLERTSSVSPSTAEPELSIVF
Assay: Receptor binding assay (RBA), [125I]-eotaxin
Details: human CCR3-transformed K562 cells, 0.1 nM [125I]-eotaxin; compounds of about 40 to 90% purity; read-out: Activity grade RBA (IC50 class)
Outline: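 Butyrate-pretreated (5 mM, 20-24 h) CCR3-transfected K562 cells incubated 1 h at room temperature with compound and 0.1 nM final [125I]-eotaxin in HEPES pH 7.6 buffer; bound radioactivity counted after filtration. Non-specific binding with 500 nM unlabeled eotaxin; IC50 from inhibition curve.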

Cc1ccc(Oc2ccc([N+](=O)[O-])cc2S(=O)(=O)N2CCNCC2)cc1C.Cl [Example 1-63]
IC50: 1000 to 10000 nM

Cc1ccc(C)c(Oc2ccc([N+](=O)[O-])cc2S(=O)(=O)N2CCNCC2)c1.Cl [Example 1-64]
IC50: < 1000 nM

Cc1cc(C)c(C)c(Oc2ccc([N+](=O)[O-])cc2S(=O)(=O)N2CCNCC2)c1.Cl [Example 1-65]
IC50: < 1000 nM

Cc1ccc(C(C)C)c(Oc2ccc([N+](=O)[O-])cc2S(=O)(=O)N2CCNCC2)c1.Cl [Example 1-66]
IC50: 1000 to 10000 nM

Cl.O=[N+]([O-])c1ccc(Oc2c(F)c(F)cc(F)c2F)c(S(=O)(=O)N2CCNCC2)c1 [Example 1-74]
IC50: < 1000 nM

O=[N+]([O-])c1ccc(Oc2cc(Br)cc(Br)c2)c(S(=O)(=O)N2CCNCC2)c1 [Example 1-76]
IC50: < 1000 nM

Cl.O=[N+]([O-])c1ccc(Oc2cc(Cl)cc(Cl)c2F)c(S(=O)(=O)N2CCNCC2)c1 [Example 1-77]
IC50: < 1000 nM

Cc1cc(Oc2ccc([N+](=O)[O-])cc2S(=O)(=O)N2CCNCC2)cc(C)c1Cl [Example 1-79]
IC50: < 1000 nM

Cc1ccc(Cl)c(Oc2ccc([N+](=O)[O-])cc2S(=O)(=O)N2CCNCC2)c1 [Example 1-80]
IC50: < 1000 nM

Cc1cc(Oc2ccc([N+](=O)[O-])cc2S(=O)(=O)N2CCNCC2)c(C(C)C)cc1Cl [Example 1-81]
IC50: > 10000 nM

O=[N+]([O-])c1ccc(Oc2cc(Cl)ccc2Cl)c(S(=O)(=O)N2CCNCC2)c1 [Example 1-84]
IC50: < 1000 nM

Cl.O=[N+]([O-])c1ccc(Oc2cc(Cl)cc(Cl)c2Cl)c(S(=O)(=O)N2CCNCC2)c1 [Example 1-86]
IC50: < 1000 nM

O=C(O)C1CNCCN1S(=O)(=O)c1cc([N+](=O)[O-])ccc1Oc1cc(Cl)cc(Cl)c1 (stereo not drawn) [Example 1-87]
IC50: < 1000 nM

Cc1cc(C)cc(Oc2ccc([N+](=O)[O-])cc2S(=O)(=O)N2CCN(CCO)CC2)c1 [Example 1-88]
IC50: < 1000 nM

Cc1cc(C)cc(Oc2ccc([N+](=O)[O-])cc2S(=O)(=O)N2CCN(CCOCCO)CC2)c1 [Example 1-89]
IC50: < 1000 nM

Cc1cc(C)cc(Oc2ccc([N+](=O)[O-])cc2S(=O)(=O)N2CCCNCC2)c1 [Example 1-90]
IC50: < 1000 nM

Cl.O=[N+]([O-])c1ccc(Oc2cc(Cl)cc(Cl)c2)c(S(=O)(=O)N2CCCNCC2)c1 [Example 1-91]
IC50: < 1000 nM

Cc1cc(C)cc(Oc2ccc([N+](=O)[O-])cc2S(=O)(=O)N2CC(C)NC(C)C2)c1 (stereo not drawn) [Example 1-92]
IC50: < 1000 nM

CC1CN(S(=O)(=O)c2cc([N+](=O)[O-])ccc2Oc2cc(Cl)cc(Cl)c2)CC(C)N1 (stereo not drawn) [Example 1-93]
IC50: < 1000 nM

Cl.N[C@H]1CCN(S(=O)(=O)c2cc([N+](=O)[O-])ccc2Oc2cc(Cl)cc(Cl)c2)C1 [Example 1-100]
IC50: < 1000 nM

Cc1cc(C)cc(Sc2ccc([N+](=O)[O-])cc2S(=O)(=O)N2CCNCC2)c1 [Example 2-1, 1-({2-[(3,5-dimethylphenyl)-sulfanyl]-5-nitrophenyl}sulfonyl)piperazine hydrochloride]
IC50: < 1000 nM

Cc1cc(C)cc(Oc2ccc(N)cc2S(=O)(=O)N2CCN(C(=O)OC(C)(C)C)CC2)c1 [Example 5-1, tert-butyl 4-{[5-amino-2-(3,5-dimethyl-phenoxy)phenyl]sulfonyl}-1-piperazinecarboxylate]
IC50: > 10000 nM

Cc1cc(C)cc(Oc2ccc(Cl)cc2S(=O)(=O)N2CCNCC2)c1 [Example 5-2, 1-{[5-chloro-2-(3,5-dimethylphenoxy)phenyl]sulfonyl}piperazine hydrochloride]
IC50: < 1000 nM

Cc1cc(C)cc(Oc2ccc(O)cc2S(=O)(=O)N2CCNCC2)c1 [Example 6-1, 4-(3,5-dimethylphenoxy)-3-(1-piperazinylsulfonyl)phenol hydrochloride]
IC50: > 10000 nM

COc1ccc(Oc2cc(C)cc(C)c2)c(S(=O)(=O)N2CCNCC2)c1 [Example 6-2, hydrochloride]
IC50: < 1000 nM

Cc1cc(C)cc(Oc2ccc(NC(=O)Cc3ccccc3)cc2S(=O)(=O)N2CCNCC2)c1 [Example 7-1, N-[4-(3,5-dimethylphenoxy)-3-(1-piperazinylsulfonyl)phenyl]-2-phenylacetamide]
IC50: > 10000 nM

Cc1cc(C)cc(Oc2ccc(Br)cc2S(=O)(=O)N2CCNCC2)c1 [Example 8-1, 1-{[5-bromo-2-(3,5-dimethylphenoxy)phenyl]sulfonyl}piperazine hydrochloride]
IC50: < 1000 nM

Cc1cc(C)cc(Oc2ccc(C#N)cc2S(=O)(=O)N2CCNCC2)c1 [Example 9-1, 4-(3,5-dimethylphenoxy)-3-(1-piperazinylsulfonyl)benzonitrile hydrochloride]
IC50: < 1000 nM

CN(C)C(=O)c1ccc(Oc2cc(Cl)cc(Cl)c2)c(S(=O)(=O)N2CCNCC2)c1 [Example 10-1, 4-(3,5-dichlorophenoxy)-N,N-dimethyl-3-(1-piperazinylsulfonyl)benzamide hydrochloride]
IC50: 1000 to 10000 nM

Cc1cc(C)cc(Oc2cc3cc[nH]c3cc2S(=O)(=O)N2CCNCC2)c1 [Example 11-1, 5-(3,5-dimethylphenoxy)-6-(1-piperazinylsulfonyl)-1H-indole trifluoroacetate]
IC50: > 10000 nM

N#Cc1ccc(Nc2cc(Cl)cc(Cl)c2)c(S(=O)(=O)N2CCNCC2)c1 [Example 20-1, 4-[(3,5-dichlorophenyl)amino]-3-(1-piperazinylsulfonyl)benzonitrile hydrochloride]
IC50: < 1000 nM

Cc1cc(C)cc(Oc2ccncc2S(=O)(=O)N2CCNCC2)c1 [Example 25-1, 1-{[4-(3,5-dimethylphenoxy)-3-pyridinyl]sulfonyl}piperazine hydrochloride]
IC50: 1000 to 10000 nM

CN(CCN1CCCCC1)S(=O)(=O)c1cc([N+](=O)[O-])ccc1Sc1cc(Cl)cc(Cl)c1 [Example 26-1, 2-[(3,5-dichlorophenyl)sulfanyl]-N-methyl-5-nitro-N-[2-(1-piperidinyl)ethyl]benzenesulfonamide]
IC50: < 1000 nM
